Where two headings read alike, the source gives them in different places.
Experiments:
CD1 mice = assay: Warm water tail-flick assay, compound alone (basal EM1 only); format: in vivo; conditions: 15 mg/kg subcutaneous, 30 minutes after dosing, no exogenous EM1
Excerpt: An acute pain model was used to determine the analgesic effect of a MOR PAM administered by itself (i.e., in the absence of exogenous opioid). This approach avoids the complexity of matching the pharmacokinetic profile of endomorphin release in response to a pain-inducing insult with a (1) particular MOR PAM (to account for basal endomorphin analgesis) and (2) the measurement window of the study, as would be required for a chronic pain study. Accordingly, an acute pain model, in which the pharmacodynamic measurement was performed directly after the insult, was employed. This was expected to isolate the low basal levels of EM1 analgesis that existed prior to the insult, thereby eliminating the contribution of the time course of release of endogenous opioids in response to the insult. Mousa et al., supra.
The warm water tail-flick assay was chosen as the acute pain model for the reasons described above. […] Przewlocka et al., (1999), supra. First, minimum and sub-efficacious dose of EM1, applied via intrathecal injection to rats, were identified. […] In addition, the time required for maximal response to an intrathecal injection of EM1 to be observed, as well as the time required for a return to basal levels of antinociception, were determined and likewise found to be in agreement with those found in the literature. […]

MOR [1] = biological target: T1, MOR (Homo sapiens, UniProt P35372); format: cell-based
MOR [2] = biological target: T1, MOR; assay: cell-based; conditions: EC20 morphine agonism of MOR
MOR [3] = biological target: T1, MOR; format: cell-based; conditions: cAMP; EC20 EM2 agonism of MOR
[4] = Plasma, brain and spinal cord concentrations after subcutaneous dosing; format: in vivo; conditions: subcutaneous 15 mg/kg, ICR rats
Description: Concentrations of subcutaneously injected compound 9 in spinal tissue (where the DRG are located) were also assessed.

MOR [5] = biological target: T1, MOR; assay: cell-based; conditions: EC20 Oxycodone agonism of MOR
mu opioid receptor (MOR) [6] = biological target: T2, mu opioid receptor (MOR) (Homo sapiens, UniProt P35372); assay: PathHunter β-arrestin recruitment assay, PAM mode with EC20 endomorphin-1; format: cell-based
Procedure, shortened: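 Enzyme fragment complementation read-out: β-gal ED fragment fused to receptor, EA fused to β-arrestin, recruitment restoring β-gal activity detected by chemiluminescence. EC50 and percent maximal response derived for each compound.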

MOR [7] = biological target: T1, MOR; assay: cell-based; conditions: EC20 morphine agonism of MOR; remark: listed apart in the source
ICR rats = assay: Warm water tail-flick assay with intrathecal exogenous EM1; format: in vivo
Description: The warm water tail-flick assay was chosen as the acute pain model for the reasons described above. […] Przewlocka et al., (1999), supra. First, minimum and sub-efficacious dose of EM1, applied via intrathecal injection to rats, were identified. The values obtained for the minimum (3 ug/kg) and sub-efficacious dose of EM1 (1 ug/kg) are in agreement with those found in the literature. Horvath (2000), supra. In addition, the time required for maximal response to an intrathecal injection of EM1 to be observed, as well as the time required for a return to basal levels of antinociception, were determined and likewise found to be in agreement with those found in the literature.
. For these experiments, the delay in tail flick induced by EM1 alone was compared to the delay in tail flick when compound 9 was dosed in ICR-rats in combination with intrathecal administration of minimum and sub-efficacious doses of EM1. […]; These effects might be due to any of the following: Ton[Endomorphin], KElim[Endomorphin], Toff[Endomorphin], KI[Endomorphin], and possibly additional mechanisms.
[…]. The ability to rescue a sub-therapeutic dose of the endogenous ligand in a dose- and time-dependent manner with a subtype selective MOR PAM has significant implications for the clinical viability of the use of MOR PAMs in acute and chronic pain settings.

Sprague-Dawley rats = assay: Respiratory depression: blood oxygen saturation by pulse oximetry; format: in vivo; conditions: subcutaneous; morphine 10 mg/kg, compound 9 15, 30, 60 mg/kg; 90 minutes
Description: Respiratory depression is a significant side effect associated with opioid treatment of acute and chronic pain. Drug-related overdose deaths are often a function of the respiratory depression which occurs with opioid use. Efforts to generate analgesics that dissociate pain relief from side effects are critical to the advancement of public health. […] […].
Blood oxygen saturation was assessed in awake rats with the MouseOx oximeter system (Starr Life Sciences, Holliston, Mass.). Up to 5 samples were measured every 5 minutes for 15 minutes prior to dosing and 90 minutes after dosing. Each animal was habituated to the device over several days prior to the study.

[8] = Terminal pharmacokinetics: plasma, brain and cerebrospinal fluid concentrations; format: in vivo; conditions: one hour after 15 mg/kg SC or IP, CD-1 mice
Description: Given that opioid receptors are highly concentrated in the dorsal root ganglion (DRG) and brain (Martin-Schild et al., supra), terminal pharmacokinetic studies were performed to verify the concentration in the plasma, cerebrospinal fluid and brain.

mu opioid receptor (MOR) [9] = biological target: T2, mu opioid receptor (MOR); assay: Hit Hunter cAMP signaling assay (adenylyl cyclase inhibition), PAM mode with EC20 endomorphin-1; format: cell-based
MOR [10] = biological target: T1, MOR; assay: cell-based; conditions: EC20 Oxycodone agonism of MOR; remark: listed apart in the source

T2 sequence (P35372 whole entry, the tested form may be a part): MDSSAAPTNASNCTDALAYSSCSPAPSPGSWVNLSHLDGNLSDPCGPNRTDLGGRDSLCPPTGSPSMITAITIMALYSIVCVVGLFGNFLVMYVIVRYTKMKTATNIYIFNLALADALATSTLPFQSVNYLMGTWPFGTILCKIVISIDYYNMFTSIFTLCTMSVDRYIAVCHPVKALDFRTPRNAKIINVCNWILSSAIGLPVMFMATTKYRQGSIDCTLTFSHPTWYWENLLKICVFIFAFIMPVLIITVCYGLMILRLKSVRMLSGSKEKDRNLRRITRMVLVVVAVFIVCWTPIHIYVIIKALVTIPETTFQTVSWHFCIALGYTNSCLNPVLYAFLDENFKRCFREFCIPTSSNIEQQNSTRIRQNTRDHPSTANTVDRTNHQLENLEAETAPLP
T1 sequence (P35372 whole entry): as the sequence (P35372 whole entry, the tested form may be a part) above

Structure (SMILES): Fc1cnc(Cl)nc1N1CCCCC1c1cccc(C(F)(F)F)c1 (single isomer, unassigned) [compound 9]
- antinociceptive effect, tail-flick latency (CD1 mice): No antinociceptive effects were observed
- shift in the potency of EM1 (MOR [1]; cAMP assay): concentration-dependent and saturable leftward shifts
- factor of increase of the affinity (α) of EM1 (MOR [1]; cAMP signaling): 2
- factor of increase of the efficacy (β) of EM1 (MOR [1]; cAMP signaling): 1.8
- effective potency for PAM effect (MOR [1]; cAMP signaling, EM1): 44 nM
- EC50 (MOR [2]; RC50, β-arrestin): 10.7 µM
- Max. Response (MOR [2]; β-arrestin): 456
- Max. Response (MOR [3]): 80
- exposure in spinal tissue and brain [4]: good exposures in spinal tissue
- EC50 (MOR [5]; RC50, β-arrestin): 11.1 µM
- Max. Response (MOR [5]; β-arrestin): 296
- EC50 (mu opioid receptor (MOR) [6]; EM1-mediated MOR agonism, read-out: RC50 for β-arrestin recruitment): 360 nM
- β-arr Max. Resp. (mu opioid receptor (MOR) [6]; maximal response for β-arrestin recruitment): F (F represents a maximal response of > 60%)
- EC50 (mu opioid receptor (MOR) [6]; β-arrestin recruitment, read-out: β-arr. EC50): < 700 nM
- Max. Response (mu opioid receptor (MOR) [6]; β-arrestin, EC20 EM-1 agonism of MOR): 210
- EC50 (MOR [7]; RC50, cAMP): 2950 nM
- Max. Response (MOR [7]; cAMP): 38
- effect on antinociception of a minimally efficacious dose of EM1 (ICR rats; rat, in vivo): potentiates the effect of suboptimal doses of EM-1
- effect on antinociception of a sub-efficacious dose of EM1 (ICR rats; rat, in vivo): potentiates the effect of sub-efficaceous doses of the opioid
- αβ product, in vivo effects fit (ICR rats; tail-flick, EM1 3 μg intrathecal (FIG. 12C)): 31.5
- oxygen saturation / respiratory depression (Sprague-Dawley rats): did not induce respiratory depression
- persistence in brain and plasma [8]: persists in brain and plasma, at therapeutically relevant concentrations
- EC50 (mu opioid receptor (MOR) [9]; RC50 for adenylyl cyclase inhibition, EM1-mediated MOR agonism): 590 nM
- EC50 (mu opioid receptor (MOR) [9]; cAMP EC50, adenylyl cyclase inhibition): < 700 nM
- Max. Response (mu opioid receptor (MOR) [9]; cAMP, EC20 EM-1 agonism of MOR): 75
- cAMP Max. Resp. (mu opioid receptor (MOR) [9]; maximal response for adenylyl cyclase inhibition): F (F represents a maximal response of > 60%)
- EC50 (MOR [10]; RC50, cAMP): 3.18 µM
- Max. Response (MOR [10]; cAMP): 40

— patent US11071731B2, “Allosteric modulators of the mu opioid receptor” (Chiromics, LLC, priority 2017, dated 2021)
